In US20180220653A1, “Methods for Identifying Compounds that Directly Bind to Insect Transient Receptor Potential Channels” (priority 2015, published 2018):
Where two headings read alike, the source gives them in different places.

Tests used:
[1] = tested on: Nan; format: binding, Drosophila; conditions: for displacement of [3H]-afidopyropen from Nan-only sites: Ki not accurately determined, curves did not reach bottom plateaus
[2] = tested on: Nan and Iav from pea aphid; experiment: Two-electrode voltage clamp in Xenopus laevis oocytes injected with Nan and Iav mRNA; format: cell-based, Acyrthosiphon pisum; conditions: 10 uM dPFQ; oocytes with Nan+Iav vs Nan or Iav alone; FIG. 4a
[3] = Solubility observed in competition binding assay; conditions: at high concentrations, binding buffer
[4] = target: T1, insect TRPV channels, Nan and Iav (Drosophila melanogaster, UniProt M9PI57+Q9W3W0); conditions: for EC50: read-out: half-maximal effective concentrations (EC50), calcium mobilization, CHO cells co-expressing Nan and Iav, FIG. 5
T1 sequence (M9PI57 1-834): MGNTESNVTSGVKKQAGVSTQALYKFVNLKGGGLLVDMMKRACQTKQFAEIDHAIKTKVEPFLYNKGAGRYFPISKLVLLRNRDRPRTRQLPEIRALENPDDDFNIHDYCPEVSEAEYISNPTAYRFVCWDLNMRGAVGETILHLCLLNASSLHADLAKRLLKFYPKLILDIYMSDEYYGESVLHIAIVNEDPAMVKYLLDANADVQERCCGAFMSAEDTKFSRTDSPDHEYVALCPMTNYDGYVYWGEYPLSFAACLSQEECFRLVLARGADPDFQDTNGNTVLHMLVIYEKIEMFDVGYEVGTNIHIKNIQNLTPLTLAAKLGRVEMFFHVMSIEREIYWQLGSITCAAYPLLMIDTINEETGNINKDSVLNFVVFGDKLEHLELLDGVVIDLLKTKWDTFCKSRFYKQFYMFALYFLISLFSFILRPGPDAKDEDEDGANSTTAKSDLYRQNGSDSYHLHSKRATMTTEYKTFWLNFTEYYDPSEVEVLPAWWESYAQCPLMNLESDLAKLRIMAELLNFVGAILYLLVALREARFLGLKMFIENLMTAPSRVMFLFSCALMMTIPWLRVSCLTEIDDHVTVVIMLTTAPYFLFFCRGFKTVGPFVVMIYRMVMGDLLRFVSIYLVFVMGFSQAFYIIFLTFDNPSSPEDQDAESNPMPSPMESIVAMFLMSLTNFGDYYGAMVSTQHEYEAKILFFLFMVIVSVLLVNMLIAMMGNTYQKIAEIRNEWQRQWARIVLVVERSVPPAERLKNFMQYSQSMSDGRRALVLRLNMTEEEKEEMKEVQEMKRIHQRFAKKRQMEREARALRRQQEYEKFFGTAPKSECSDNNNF
T1 sequence (Q9W3W0 1-1123): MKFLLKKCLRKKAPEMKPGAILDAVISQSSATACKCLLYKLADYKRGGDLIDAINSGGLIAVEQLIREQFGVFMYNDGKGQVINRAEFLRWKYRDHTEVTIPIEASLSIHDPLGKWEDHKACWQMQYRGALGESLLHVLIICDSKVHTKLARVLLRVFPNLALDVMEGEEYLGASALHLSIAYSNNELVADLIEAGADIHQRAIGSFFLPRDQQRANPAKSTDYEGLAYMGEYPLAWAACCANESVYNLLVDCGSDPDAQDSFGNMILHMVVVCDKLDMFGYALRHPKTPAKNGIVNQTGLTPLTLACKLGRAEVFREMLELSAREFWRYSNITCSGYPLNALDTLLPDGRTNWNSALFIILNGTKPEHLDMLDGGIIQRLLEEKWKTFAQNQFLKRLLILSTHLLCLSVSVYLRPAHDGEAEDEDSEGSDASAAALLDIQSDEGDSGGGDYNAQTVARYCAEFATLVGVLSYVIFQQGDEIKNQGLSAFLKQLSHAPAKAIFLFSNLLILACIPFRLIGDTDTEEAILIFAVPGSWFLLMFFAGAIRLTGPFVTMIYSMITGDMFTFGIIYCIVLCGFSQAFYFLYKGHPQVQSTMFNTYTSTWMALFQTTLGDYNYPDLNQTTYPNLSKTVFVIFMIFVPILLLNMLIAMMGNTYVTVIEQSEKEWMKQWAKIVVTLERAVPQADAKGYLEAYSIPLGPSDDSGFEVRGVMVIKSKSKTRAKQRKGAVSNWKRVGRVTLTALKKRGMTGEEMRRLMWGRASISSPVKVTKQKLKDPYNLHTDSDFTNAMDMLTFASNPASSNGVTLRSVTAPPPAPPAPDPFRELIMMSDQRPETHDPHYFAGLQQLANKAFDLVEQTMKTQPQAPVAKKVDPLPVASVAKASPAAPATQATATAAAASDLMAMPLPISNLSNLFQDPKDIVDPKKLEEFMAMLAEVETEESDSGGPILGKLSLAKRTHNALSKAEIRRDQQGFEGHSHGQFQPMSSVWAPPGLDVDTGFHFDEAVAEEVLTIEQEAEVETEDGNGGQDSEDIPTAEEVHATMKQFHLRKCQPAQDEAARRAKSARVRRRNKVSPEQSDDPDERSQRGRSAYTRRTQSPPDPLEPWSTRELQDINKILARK

[5] = target: T1, insect TRPV channels, Nan and Iav
[6] = tested on: American grasshoppers (Schistocerca americana); experiment: Leg extension assay in American grasshoppers; format: in vivo; conditions: injection, 10 mM in 100% DMSO, 3 μl per animal; assessed 40-60 minutes post-injection
Method: American grasshoppers (Schistocerca americana) were obtained from Dr. Hojun Song (University of Central Florida). Test compounds (10 mM in 100% DMSO), or vehicle (100% DMSO) were applied by injection through the abdominal intersegmental cuticle (3 μl per animal), using Hamilton syringe. The effects of compounds were assessed 40-60 minutes post-injection.

[7] = tested on: locusts (Locusta migratoria); conditions: injection, Ausborn et al., 2005; cited from earlier work
[8] = target: T1, insect TRPV channels, Nan and Iav; experiment: cell-based
[9] = target: mouse TRPV channel, mTRPV4 (Mus musculus, UniProt Q9EPK8); experiment: Calcium response in CHO cells expressing mTRPV4; format: cell-based; conditions: CHO cells transduced with mTRPV4 adenovirus; FIG. 6
[10] = Nan+Iav cells vs parental cells and cells expressing Nan or Iav alone, FIG. 3
[11] = Nan+Iav cells vs parental cells and cells expressing Nan or Iav alone, FIG. 4

Sequence of mouse TRPV channel, mTRPV4 (Q9EPK8 whole entry): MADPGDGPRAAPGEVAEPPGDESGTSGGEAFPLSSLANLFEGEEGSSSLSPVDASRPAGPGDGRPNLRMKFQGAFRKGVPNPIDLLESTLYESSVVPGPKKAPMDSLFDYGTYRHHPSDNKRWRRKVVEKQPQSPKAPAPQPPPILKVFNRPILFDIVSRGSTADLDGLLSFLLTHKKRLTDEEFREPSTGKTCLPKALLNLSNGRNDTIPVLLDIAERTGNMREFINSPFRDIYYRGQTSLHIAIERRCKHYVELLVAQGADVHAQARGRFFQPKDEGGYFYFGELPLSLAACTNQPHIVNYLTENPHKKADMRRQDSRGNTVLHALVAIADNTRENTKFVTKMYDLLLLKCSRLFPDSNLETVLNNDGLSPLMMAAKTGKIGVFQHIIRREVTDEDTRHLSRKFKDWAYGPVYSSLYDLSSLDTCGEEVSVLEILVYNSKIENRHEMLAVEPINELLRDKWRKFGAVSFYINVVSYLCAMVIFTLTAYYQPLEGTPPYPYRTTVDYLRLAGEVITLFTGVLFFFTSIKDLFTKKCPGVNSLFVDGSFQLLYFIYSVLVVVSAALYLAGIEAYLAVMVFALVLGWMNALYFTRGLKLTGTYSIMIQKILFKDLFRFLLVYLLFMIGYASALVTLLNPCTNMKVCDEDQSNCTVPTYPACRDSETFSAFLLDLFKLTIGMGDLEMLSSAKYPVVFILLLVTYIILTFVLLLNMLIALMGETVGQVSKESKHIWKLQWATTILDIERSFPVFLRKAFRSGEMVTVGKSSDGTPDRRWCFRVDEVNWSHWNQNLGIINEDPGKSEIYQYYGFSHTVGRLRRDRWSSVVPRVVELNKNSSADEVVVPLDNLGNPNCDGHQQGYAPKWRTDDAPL

## O=C1Nc2ccc(C(F)(C(F)(F)F)C(F)(F)F)cc2CN1NCc1cccnc1 [N-deacetylated pyrifluquinazon]
[1]
  displacement of [3H]-afidopyropen from Nan-only sites: clearly displaced
[2]
  inward and outward current responses: evoked both inward and outward current responses only in oocytes expressing both Nan and Iav
[3]
  solubility: poor solubility
[4]; [10]
  calcium mobilization response: only in cells co-infected with Nan and Iav viruses
[4]
  EC50: 64 nM
[5]; [11]
  membrane depolarization response: only in cells co-infected with Nan and Iav viruses

## CC1=NNC(=O)N(/N=C/c2cccnc2)C1 [pymetrozine]
[6]
  hind leg extension: Elicit Characteristic Hind Leg Extension
[7]
  hind leg extension: produce characteristic hind leg extension
[8]
  EC50: 51 nM
[1]
  displacement of [3H]-afidopyropen from Nan-only sites: clearly displaced
[3]
  solubility: poor solubility
[4]
  calcium mobilization response: only in cells co-infected with Nan and Iav viruses
[5]
  membrane depolarization response: only in cells co-infected with Nan and Iav viruses

## CC(C)C[C@H](NC(=O)c1cc2ccccc2s1)C(=O)N1CCN(C(=O)[C@H](CO)NS(=O)(=O)c2ccc(Cl)cc2Cl)CC1 [GSK1016790A, N-((1S)-1-{[4-((2S)-2-{[(2,4-dichlorophenyl)sulfonyl]amino}-3-hydroxypropanoyl)-1-piperazinyl]carbonyl}-3-methylbutyl)-1-benzothiophene-2-carboxamide]
[9]
  calcium response / activation of mTRPV4: evoked strong calcium response

## C[C@]1(COC(=O)C2CC2)[C@@H]2C[C@H](O)[C@@]3(C)Oc4cc(-c5cccnc5)oc(=O)c4[C@H](O)[C@@H]3[C@@]2(C)CC[C@@H]1OC(=O)C1CC1 [afidopyropen]
[6]
  hind leg extension: elicited hind leg extension
[9]
  calcium response / activation of mTRPV4: failed to activate
[1]; Nan-only expressing membranes, FIG. 9B, read-out: Ki, displacement assay
  Ki: 3.1 nM
[4]; [10]
  calcium mobilization response: only in cells co-infected with Nan and Iav viruses
[4]
  EC50: 1 nM
[5]; [11]
  membrane depolarization response: only in cells co-infected with Nan and Iav viruses
